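Following 48 hours of exposure in 96-well plates, responses at five concentrations were used to interpolate endpoints linearly. Here, GI50 denotes the concentration required for 50% inhibition of growth.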 Active and inactive are the calls of the source. Rule as the data show it: active = GI50 up to about 1.1 µM and inactive = higher.
Assays:
Assay in all cases: DTP human tumour cell line panel, 48 h
[1] = system: ACHN
[2] = system: HOP-92
[3] = system: HT-29
[4] = system: Hs-578T
[5] = system: MCF7
[6] = system: NCI-H226
[7] = system: NCI-H23
[8] = system: NCI-H522
[9] = system: OVCAR-5
[10] = system: OVCAR-8
[11] = system: PC-3
[12] = system: SF-268
[13] = system: SF-539
[14] = system: SK-MEL-28
[15] = system: SK-MEL-5
[16] = system: SW-620
[17] = system: U-251
[18] = system: UACC-257
[19] = system: UACC-62
[20] = system: UO-31

Measured: GI50

CC(=O)O/C=C\OC1CCCC1(c1ccccc1)c1ccccc1 (stereo not given)
inactive: [1] 2.03 µM | [2] 1.82 µM | [3] 2.91 µM | [4] 3.1 µM | [5] 2.21 µM | [6] 9.04 µM | [7] 2.49 µM | [8] 10.1 µM | [9] 7.13 µM | [10] 2.42 µM | [11] 3.12 µM | [12] 2.92 µM | [13] 1.73 µM | [14] 2.1 µM | [15] 2.61 µM | [16] 2.42 µM | [17] 3.52 µM | [18] 3.65 µM | [19] 5.27 µM | [20] 1.94 µM

COc1c(-c2cc(C)c(Cl)c(=O)[nH]2)c(O)c(OC)c2occc12
inactive: [1] > 100 µM | [2] 23.1 µM | [3] > 100 µM | [4] > 10 µM | [5] > 100 µM | [6] > 100 µM | [7] > 100 µM | [8] > 100 µM | [9] > 100 µM | [10] > 100 µM | [11] > 100 µM | [12] 97.1 µM | [13] > 100 µM | [14] > 100 µM | [15] 78.3 µM | [16] > 100 µM | [17] > 100 µM | [18] > 100 µM | [19] 64 µM | [20] 38.5 µM

Cc1cccc2c(N)c3cccc(C(=O)NCC[N+]4(Cc5ccc([N+](=O)[O-])cc5)CCOCC4)c3nc12
inactive: [1] 29 µM | [2] 22.4 µM | [3] 25.8 µM | [4] 7.26 µM | [5] 38.9 µM | [6] 41 µM | [7] 35.9 µM | [8] 13.5 µM | [9] > 100 µM | [10] 30.4 µM | [11] 40.4 µM | [12] 15.6 µM | [13] 24.8 µM | [14] 49.7 µM | [15] 53.5 µM | [16] 44.2 µM | [17] 38.8 µM | [18] 60.3 µM | [19] > 51.4 µM | [20] 48.2 µM

COc1cc(CNc2nc3ccccc3n2Cc2ccccc2)cc(CN2CCOCC2)c1O
inactive: [1] 39.6 µM | [2] 12.1 µM | [3] 23.3 µM | [4] 29.9 µM | [5] 31.7 µM | [6] 30.8 µM | [7] 60.7 µM | [8] 32.4 µM | [9] 26.5 µM | [10] 32.1 µM | [11] 29.4 µM | [12] 59.8 µM | [13] 20 µM | [14] 18.4 µM | [15] 18.6 µM | [16] 45.6 µM | [17] 31.2 µM | [18] 20.1 µM | [19] 22.9 µM | [20] 18.2 µM

Cc1cc(C)c([S@@](=O)O[C@@H]2[C@H]3OC(C)(C)O[C@H]3O[C@@H]2[C@H]2COC(C)(C)O2)c(C)c1
inactive: [1] 15.3 µM | [2] 16.6 µM | [3] 29.7 µM | [4] 37.2 µM | [5] 16.7 µM | [6] 24.6 µM | [7] 31.6 µM | [8] 8.65 µM | [9] 29.2 µM | [10] 19.1 µM | [11] 19.9 µM | [12] 31.9 µM | [13] 19.5 µM | [14] 29.1 µM | [15] 31.2 µM | [16] 20 µM | [17] 20.2 µM | [18] 19.5 µM | [19] 22 µM | [20] 17.6 µM

N#Cc1cnc(N)nc1NCC1(CO)CC(CCc2ccccc2)C1 (stereo not given)
inactive: [1] > 33.5 µM | [2] 19.7 µM | [3] > 100 µM | [4] > 70.8 µM | [5] 49.1 µM | [6] > 100 µM | [7] 63.4 µM | [8] > 55.2 µM | [9] > 100 µM | [10] 47.3 µM | [11] > 91.2 µM | [12] > 55.6 µM | [13] > 100 µM | [14] > 100 µM | [15] 1.72 µM | [16] > 100 µM | [17] > 59.2 µM | [18] 42.1 µM | [19] > 100 µM | [20] 20.3 µM

O=c1c2ccccc2nc2n1NC(c1c(Cl)cccc1Cl)N2c1cccc(Cl)c1 (stereo not given)
inactive: [1] 3.1 µM | [2] 4.52 µM | [3] 6.73 µM | [4] 7.55 µM | [5] 1.69 µM | [6] 2.56 µM | [7] 14.6 µM | [8] 10.4 µM | [9] 4.54 µM | [10] 3.26 µM | [11] 5.11 µM | [12] 11.9 µM | [13] 11.5 µM | [14] 12.7 µM | [15] 16.6 µM | [16] 3.32 µM | [17] 2.14 µM | [18] 25.2 µM | [19] 5.86 µM | [20] 2.38 µM

O=C(O)c1ccccc1CC1Cc2ccccc2C1=O (stereo not given)
inactive: [1] > 100 µM | [2] > 100 µM | [3] > 100 µM | [4] > 100 µM | [5] > 100 µM | [6] > 100 µM | [7] > 100 µM | [8] > 100 µM | [9] > 100 µM | [10] > 100 µM | [11] > 100 µM | [12] > 100 µM | [13] > 100 µM | [14] > 100 µM | [15] > 100 µM | [16] > 100 µM | [17] > 100 µM | [18] > 100 µM | [19] > 100 µM | [20] > 100 µM

CO[C@@H](c1ccccc1)[C@H](O)[C@@](O)(c1ccccc1)P(=O)(OC)OC
inactive: [1] > 100 µM | [2] 29.8 µM | [3] > 100 µM | [4] > 100 µM | [5] > 100 µM | [6] > 100 µM | [7] > 100 µM | [8] 78.9 µM | [9] > 100 µM | [10] > 100 µM | [11] > 100 µM | [12] > 100 µM | [13] > 100 µM | [14] > 100 µM | [15] > 100 µM | [16] > 100 µM | [17] > 100 µM | [18] > 100 µM | [19] > 100 µM | [20] > 100 µM

CCOC(=O)[C@@H]1C[C@@H]1c1ccc(O)c(O)c1
inactive: [1] 42.8 µM | [2] 36.7 µM | [3] 50.2 µM | [4] 43.1 µM | [5] 16.9 µM | [6] 22.5 µM | [7] 43.4 µM | [8] 4.62 µM | [9] > 100 µM | [10] 21.8 µM | [11] 12.7 µM | [12] 30.8 µM | [13] 20.6 µM | [14] 30.8 µM | [15] 14.4 µM | [16] 14.3 µM | [17] 72.1 µM | [18] 39.2 µM | [19] 13.4 µM | [20] 10.7 µM

— ChEMBL document CHEMBL1201862, “PubChem BioAssay data set” (2004)
